Where “and” joins values, the source holds several entries; their conditions need not be identical. Equal entries are not always repeated.
Key:
γ-secretase = test system: γ-secretase; design: method as in PMID 20009055, PMID 18450517; conditions: at the target tissue site; cited from earlier work
[1] = test system: in vitro BBB model (bEnd.3 cells); assay: Penetration across the in vitro BBB model (bEnd.3 monolayer on Transwell inserts, HPLC); format: in vitro ADME, mouse; conditions: bEnd.3 Transwell, n = 6
Procedure: The lyophilised powders of synthesised molecules (G0K-FP and G1K-FP) as well as free drug (FP) were dissolved in the FBS-free; phenol-free culture media in a concentration of 200 µM. Quantitative analysis of drug and drug-attached dendrons penetration was conducted using HPLC (Agilent technology/1260 infinity, Stockport, UK). The analysis was carried out using a hydrophobic C18 column (150 × 4.6 mm) and a UV-detection wavelength 248 nm which is the λmax of FP [5]. The gradient of eluent of the mobile phase was run from 75:25 to 25:75 of water: acetonitrile over 20 min. The standard curve for each molecule was obtained to calculate the percentage of transported amount across the in vitro BBB model.
To establish an in vitro BBB model, bEnd.3 cells were cultured on microporous membrane (0.4 µm pore size) of 12-Transwell inserts (Fisher Scientific) with complete culture media. TEER values between apical and basolaterl chambers was measured using an Evom voltometer (Sarasota, FL, USA) to determine the day of maximum values indicating tight junction formation. The measurements were taken up to day 8 of culturing and compared to the results of HUVECs which were also cultured into Transwell-clear inserts. Cell-free Transwell inserts were included to exclude the resistance related to the inserts membrane alone. The apical chambers of bEnd.3 culture were then treated with 200 µM of each samples. After 1 and 4 h incubation, 200 µL samples were taken from the basolateral chambers and percentage of permeability calculated according to the following:PMaterial % = ((CAcceptor × VAcceptor)/(CDonor × VDonor)) × 100%(1) where PMaterial %: the percentage of permeability of the tested material, CAcceptor: the concentration of the tested material in basal chamber, VAcceptor: the volume of the culture media in the basal chamber, CDonor: the initial concentration of the tested material in the apical chamber, VDonor: the volume of the culture media in the apical chamber.

[2] = design: method as in PMID 7736686; conditions: cited from earlier work
γ-secretase enzyme = assay: Quantification of γ-secretase enzyme in C6 glial cells (sandwich ELISA); format: cell-based; conditions: 200 µM, 4 h incubation, untreated control 28.43 ± 8.32 pg/mL, n = 6
Procedure: The C6 glial cells seeded in a density of 5 × 10^4 cells per cm^2 and incubated at 37 °C and 5% CO2. The investigation is based on sandwich enzyme-linked immune-sorbent assay (ELISA) technology using γ-secretase enzyme kit (Abbexa Ltd., Cambridge, UK). C6 glial cells were cultured in 24-well plates at density 5 × 10^4 cells per cm^2, and at confluence, they were treated with 200 μM FP, […]-FP, or […]-FP dissolved in […] media. Wells containing untreated C6 cells were also included as a control. After 4 h incubation, cells were washed with PBS and lysed via freezing to -20 °C and thawing to room temperature 3 times. […] The collected samples were used immediately to avoid any degradation and denaturalisation. The standard curve of γ-secretase standards (supplied with kit) was constructed and the concentration of γ-secretase was calculated for each sample.

[3] = design: method as in PMID 7736686; conditions: cited from earlier work; remark: listed apart in the source
bEnd.3 cells monolayer = test system: bEnd.3 cells monolayer; design: method as in PMID 24280275; conditions: cited from earlier work
[4] = test system: brain endothelial cells and Caco-2 cell monolayers; design: method as in PMID 23089576; conditions: cited from earlier work
[5] = 1 h after applying 200 µM to apical chamber
[6] = 4 h after applying 200 µM to apical chamber

CC(C(=O)O)c1ccc(-c2ccccc2)c(F)c1 (stereo not drawn) [FP, Flurbiprofen]
required therapeutic concentration for pharmacologically-significant effect on γ-secretase activity (γ-secretase): 150–250 µM | % Of Permeability (Mean ± SD) [1, 5]: 2.71 ± 1.52% | % Of Permeability (Mean ± SD) [1, 6]: 8.50 ± 1.32% | % Of Permeability (Mean ± SD) ([1]; 4 h after applying 200 µM to apical chamber, listed as Free FP): less than 9% | % Of Permeability (Mean ± SD) ([1]; 4 h after applying 200 µM to apical chamber, listed as free drug): not more than 8.5% | water solubility [2]: poorly water-soluble | γ-Secretase Enzyme Concentration (Mean ± SD) (γ-secretase enzyme): 8.2 pg/mL and 8.20 ± 3.80 pg/mL | biological half-life [3]: 4 h | time to full excretion from the body [3]: ≤ 24 h | diffusion through bEnd.3 cells monolayer (bEnd.3 cells monolayer): approximately 10%

CC(C(=O)NCCCC[C@H](NC(=O)C(C)c1ccc(-c2ccccc2)c(F)c1)C(=O)N[C@@H](Cc1ccccc1)C(=O)O)c1ccc(-c2ccccc2)c(F)c1 (stereo partly drawn) [G0K-FP, Generation 0 lysine dendron-2Flurbiprofen]
% Of Permeability (Mean ± SD) [1, 5]: 5.3% and 5.31 ± 2.73% | % Of Permeability (Mean ± SD) [1, 6]: 12.5% and 12.48 ± 3.42%

CC(C(=O)NCCCC[C@H](NC(=O)C(C)c1ccc(-c2ccccc2)c(F)c1)C(=O)NCCCC[C@H](NC(=O)[C@H](CCCCNC(=O)C(C)c1ccc(-c2ccccc2)c(F)c1)NC(=O)C(C)c1ccc(-c2ccccc2)c(F)c1)C(=O)N[C@@H](Cc1ccccc1)C(=O)O)c1ccc(-c2ccccc2)c(F)c1 (stereo partly drawn) [G1K-FP, Generation 1 lysine dendron-4Flurbiprofen]
% Of Permeability (Mean ± SD) [1, 5]: 4.3% and 4.32 ± 1.05% | % Of Permeability (Mean ± SD) [1, 6]: 14.8% and 14.79 ± 2.06%

paclitaxel
fold greater permeability than paclitaxel alone [4]: 12 fold
